Values quoted from earlier work in US20240424024A1, “PHARMACEUTICAL COMPOSITION AND KIT COMPRISING AN IMMUNOMODULATORY SUBSTANCE FOR TREATING DISEASES” (ellennbe GmbH, priority 2021, published 2024).

System: perfusion of the skin
Details: 50 μl of 20 mmol/l MN, healthy subjects, Laser Speckle Contrast Imager; Elawa et al. 2020

COC(=O)c1cccnc1 [methyl nicotinate]
perfusion increase of the skin after topical application: reaches a stable plateau phase after five minutes
